Data on seven molecules can be found in publication PMC3438171, “Characterization of Isoenzyme-Selective Inhibitors of Human Sphingosine Kinases” (PLoS ONE, 2012).

One assay addresses T1, recombinant human SK1 (Homo sapiens, UniProt Q9NYA1).
T1 construct: purchased BPS Biosciences
Kind of assay: SK activity assay, recombinant human SK1 (ADP-Quest; HPLC assay for SKI-II). Type of assay: biochemical. Conditions: for mode of inhibition of SK1: substrate competition, Lineweaver-Burk plots; for Ki: recombinant human SK1, mean ± SEM of three independent experiments; for Ki / IC50: ADP-Quest (SKI-II: HPLC assay); for IC50: sphingosine 10 µM, read-out: IC50 for inhibition of SK1.

Assay [1] relates to STAT3, AKT, ERK, p21, p53, FAK, Beclin1, LC3 in A498 cells. Kind of assay: Western blot of signaling proteins in A498 cells. Type of assay: cell-based. Conditions: inhibitor at its IC50, 48 hours. Here is the method: Following treatment with the SK inhibitors, cells were washed, harvested and lysed, and supernatants were prepared and protein concentrations were determined as previously described. Immunoblotting was carried out with the following primary antibodies (Cell Signaling): AKT, pAKT, ERK1/2, pERK1/2, STAT3, pSTAT3, p21, p53, FAK, pFAK(Y397), Beclin1, LC3, β-actin; and corresponding HRP-conjugated anti-rabbit or anti-mouse secondary antibodies, and immunocomplexes were visualized by the chemiluminescence. Protein expression was quantified by densitometric scanning of the BIOMAX XAR films after normalization to β-actin using the program NIH ImageJ.
Figure 6 Effects of SK inhibitors on signaling proteins. […] Figures are representative blots of at least three independent experiments. B ) Immunoblotting was conducted with the indicated antibodies, and densitometric quantification was done using Image J. Relative expression is represented as the ratio to control after normalization to β-actin.
For orientation: In western blotting, separated proteins are transferred to a membrane and probed.

For assay [2], the system named is A498 kidney adenocarcinoma cells. The assay is described as follows: Sphingolipid profiling by HPLC-MS in A498 cells. Type of assay: cell-based. Conditions: inhibitor at its IC50, 48 hr. On the procedure:
(§1) To assess proliferation, cells were treated with the SK inhibitors for the indicated times, and cell numbers were quantified using the sulforhodamine assay. Expression levels of SK1 and SK2 were measured by quantitative PCR using GAPDH for normalization, as previously described. […] The cell pellets were subjected to sphingolipid profiling by HPLC-MS by the Lipidomics Core Facility at MUSC as described elsewhere. […] For migration assays, 50,000 cells were placed in each cell culture insert (24-well format, 8 µm pore size, BD Biosciences) for 1 hr at room temperature. For invasion assays, matrigel pre-coated inserts were used as previously described. In both cases, inserts were placed into 24-well plates with 0.3 ml of 10%-serum-containing medium having the same concentration of the inhibitor as the insert. Cells were cultured for 4 hr for migration or 24 hr for invasion assays, and the number of cells that migrated to the underside of the inserts was determined by crystal violet staining as previously described.
(§2) Figure 5 Biochemical and phenotypic effects of SK inhibitors. A ) Cytotoxicity - After treatment with varying concentrations of the SK inhibitors for the indicated time periods, cell numbers were quantified. […] B ) SK expression - After SK inhibitor treatment, mRNAs for SK1 (open bars) and SK2 (filled bars) compared to the vehicle controls (DMSO-treated cells) were calculated. C ) Sphingolipid profiling – After SK inhibitor treatment, cells were harvested and sphingolipids were analyzed by mass spectrometric. The bars represent the ratio of the amount of the indicated lipids in drug treated cells compared with control cells. Abbreviations are: C26-ceramide (C26-Cer), C24-ceramide (C24-Cer), C20-ceramide (C20-Cer), C18-ceramide (C18-Cer), C16-ceramide (C16-Cer), sphingosine (Sph) and dihydrosphingosine (dhSph). D ) Cell cycle distribution – After SK inhibitor treatment, cells were harvested and analyzed by flow cytometry. The bars indicate the percentage of cells in each of the indicated cell cycle phases. E ) Cell migration and invasion – After SK inhibitor treatment, cells were harvested and migration, through unmodified filters (open bars) and invasion through Matrigel-coated filters (filled bars), were analyzed. The bars indicate the percentage of cells that had migrated compared to control cells. Data are the mean ± SEM of three independent experiments. *p<0.05, **p<0.01, ***p<0.001 versus control.

In the next assay the test system is SK2 mRNA. Kind of assay: SK2 mRNA expression by quantitative PCR in A498 cells. Conditions: inhibitor at its IC50, 48 hr. The assay is classed as cell-based. On the procedure:
as §1, §2

In a further assay the target is T2, recombinant human SK2 (Homo sapiens, UniProt Q9NRA0).
T2 construct: purchased BPS Biosciences
T2 sequence (Q9NRA0 1-654): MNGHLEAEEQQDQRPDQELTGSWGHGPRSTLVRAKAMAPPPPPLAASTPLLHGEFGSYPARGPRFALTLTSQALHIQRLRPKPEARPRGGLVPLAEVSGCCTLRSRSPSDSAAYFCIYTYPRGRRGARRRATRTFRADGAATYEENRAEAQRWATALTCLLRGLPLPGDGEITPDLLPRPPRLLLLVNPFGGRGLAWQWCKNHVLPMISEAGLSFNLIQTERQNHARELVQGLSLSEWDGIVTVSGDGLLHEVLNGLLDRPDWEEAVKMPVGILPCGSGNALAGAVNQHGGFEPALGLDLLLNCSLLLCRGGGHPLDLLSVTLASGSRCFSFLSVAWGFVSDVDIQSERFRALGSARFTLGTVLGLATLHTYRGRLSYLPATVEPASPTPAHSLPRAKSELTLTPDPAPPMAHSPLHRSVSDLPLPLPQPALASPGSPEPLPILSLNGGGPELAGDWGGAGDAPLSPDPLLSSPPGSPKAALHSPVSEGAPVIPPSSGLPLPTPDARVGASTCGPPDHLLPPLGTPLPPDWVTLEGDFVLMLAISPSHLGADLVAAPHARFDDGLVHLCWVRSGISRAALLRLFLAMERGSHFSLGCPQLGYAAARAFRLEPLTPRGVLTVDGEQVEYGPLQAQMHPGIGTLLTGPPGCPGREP
The assay is described as follows: SK activity assay, recombinant human SK2 (ADP-Quest; HPLC assay for SKI-II). Type of assay: biochemical. Conditions: for Ki: recombinant human SK2, mean ± SEM of three independent experiments; for Ki / IC50: ADP-Quest (SKI-II: HPLC assay); for IC50: sphingosine 5 µM, read-out: IC50 for inhibition of SK2; for mode of inhibition of SK2: substrate competition, Lineweaver-Burk plots.

For assay [3], the system named is A498 kidney adenocarcinoma cells. The assay is described as follows: Proliferation / cytotoxicity, sulforhodamine assay. Particulars: Homo sapiens, A498, 48 h, read-out: IC50, concentration that reduces cell number by 50%. The assay is classed as cell-based.
Protocol: (§3) To assess proliferation, cells were treated with the SK inhibitors for the indicated times, and cell numbers were quantified using the sulforhodamine assay [38]. […] For migration assays, 50,000 cells were placed in each cell culture insert (24-well format, 8 µm pore size, BD Biosciences) for 1 hr at room temperature. For invasion assays, matrigel pre-coated inserts were used as previously described [17]. In both cases, inserts were placed into 24-well plates with 0.3 ml of 10%-serum-containing medium having the same concentration of the inhibitor as the insert. Cells were cultured for 4 hr for migration or 24 hr for invasion assays, and the number of cells that migrated to the underside of the inserts was determined by crystal violet staining as previously described [17].
(§4) A ) Cytotoxicity - After treatment with varying concentrations of the SK inhibitors for the indicated time periods, cell numbers were quantified. […] E ) Cell migration and invasion – After SK inhibitor treatment, cells were harvested and migration, through unmodified filters (open bars) and invasion through Matrigel-coated filters (filled bars), were analyzed. […] Data are the mean ± SEM of three independent experiments. *p<0.05, **p<0.01, ***p<0.001 versus control.
The test system is the same in assay [4]. Kind of assay: Cell cycle distribution by flow cytometry. Type of assay: cell-based. Particulars: inhibitor at its IC50, 48 hr. On the procedure: as §2
A further assay concerns SK1 mRNA. Kind of assay: SK1 mRNA expression by quantitative PCR in A498 cells. Particulars: inhibitor at its IC50, 48 hr. The assay is classed as cell-based. On the procedure:
as §1, §2

In assay [5] the test system is panel of 65 protein kinases. The assay is described as follows: Kinase profiling, KinaseSeeker assay. Conditions: 2 µM compound; 65 protein kinases tested.
Protocol: The inhibitory effects of CB5468139 (2 µM) on the indicated protein kinases were tested using KinaseSeeker assay technology (Luceome Biotech. LLC).
The subject of assay [6] is A498 kidney adenocarcinoma cells. Kind of assay: Serum-induced migration and invasion (Matrigel) assays. Type of assay: cell-based. Particulars: inhibitor at its IC50, 48 hr pretreatment, compared with SK1-selective CB5468139.
Protocol: as §3, §4
[7] abbreviates: 100 µM ATP, sphingosine 1.25 to 20 µM, initial velocity conditions.

T1 sequence (Q9NYA1 whole entry): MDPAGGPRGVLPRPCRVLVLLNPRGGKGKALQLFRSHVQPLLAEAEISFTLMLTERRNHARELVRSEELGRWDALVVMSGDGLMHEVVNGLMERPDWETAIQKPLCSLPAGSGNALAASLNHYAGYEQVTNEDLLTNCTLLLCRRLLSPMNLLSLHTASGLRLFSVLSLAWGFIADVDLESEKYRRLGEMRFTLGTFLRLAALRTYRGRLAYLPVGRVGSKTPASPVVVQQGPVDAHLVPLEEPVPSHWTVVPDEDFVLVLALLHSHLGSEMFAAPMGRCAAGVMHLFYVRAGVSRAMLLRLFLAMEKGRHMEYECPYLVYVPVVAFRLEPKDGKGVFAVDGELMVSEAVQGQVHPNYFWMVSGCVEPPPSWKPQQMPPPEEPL
Protocol for recombinant human SK1: (§5) The enzymatic activities of recombinant human SK1 or SK2 (purity ≥74% by coomassie staining for each isozyme, BPS Biosciences) were measured using the ADP-Quest kinase assay kit (DiscoveRX Corporation, Fremont, CA) as previously described [34]. […] The reactions were maintained in initial velocity conditions (<5% of the substrate consumed), and data was fitted to the Michaelis–Menten equation by nonlinear regression (Prism 5 for Windows, GraphPad Software). […] For substrate competition analyses, a series of sphingosine concentrations were used and Lineweaver–Burk plots were constructed to define the mode of inhibition.
Protocol for recombinant human SK2: as §5

As to `CCCCCCCCCCCCC/C=C/[C@@H](O)[C@H](CO)N(C)C` [DMS, N,N-dimethyl-D-erythro-sphingosine, reference compound], on recombinant human SK1, the “mode of inhibition of SK1” value was “competitive inhibition with respect to sphingosine”. Further, in [1], the “pFAK(Y397) / FAK” value was “not altered”; the “protein levels of p53 and p21” value is “essentially no affect”. Also, the “effect on levels of ceramides” value in [2] was “little impact on the levels of most ceramides”. For the same molecule, the “SK2 mRNA level compared to vehicle control” value in the assay with SK2 mRNA is reported as “only slightly increased”. At recombinant human SK2, the inhibition constant Ki is 14 µM, the IC50 is ~20 µM and the “mode of inhibition of SK2” value is “competitive inhibition with respect to sphingosine”. The IC50 in assay [3] came out at 5 µM. Also, in assay [4], the “cells driven into apoptosis” value is reported as “approximately 20%” and the “effect on cell cycle distribution” value is “did not impact the cell cycle”. Further, the “SK1 mRNA level compared to vehicle control” value with SK1 mRNA is recorded as “tripled”.

For `CC(=O)N(C1=C(Cl)C(=O)c2ccccc2C1=O)C1CCCCC1` [CB5468139], on recombinant human SK1, the inhibition constant Ki is 0.28 ± 0.15 µM, the IC50 was ~2 µM and the “mode of inhibition of SK1” value is “ATP mimetic”. For the same molecule, in assay [1], the “pFAK(Y397) / FAK” value is on record as “strongly down-regulated”; the “protein levels of p53 and p21” value is “reduced the expression of p53, but not p21”. For the same molecule, in [2], the “decrease of intracellular S1P compared to control” value (“decrease of intracellular S1P” for short) is on record as “less than 20%” and the “increase of total ceramide levels” value is 30–60%. Besides, the “SK2 mRNA level compared to vehicle control” value in the assay with SK2 mRNA is given as “Neither ABC294735 nor CB5468139 substantially altered the expression”. The “protein kinases with ≥50% inhibition” value in assay [5] is reported as 12 of 65. In addition, the IC50 at recombinant human SK2 is > 100 µM. Also, in [3], the IC50 worked out at 10 µM. Further, in assay [4], the “effect on cell cycle distribution” value is on record as “slightly increase the S phase percentage”. Besides, in the assay on SK1 mRNA, the “SK1 mRNA level compared to vehicle control” value is on record as “Neither ABC294735 nor CB5468139 substantially altered the expression”.

For diacylglycerol [DAG], the IC50 on recombinant human SK1 and on recombinant human SK2 was > 100 µM throughout.

As for `O=C(NCc1ccncc1)C12CC3CC(C1)CC(c1ccc(Cl)cc1)(C3)C2` [ABC294640], on recombinant human SK1, the IC50 was > 100 µM. In addition, in [1], the ERK2 expression entry is recorded as “decreases of ERK2”; the “STAT3 expression and activation (pSTAT3)” value is recorded as “largest decrease”; the “expression of autophagy markers beclin1 and LC3” value is “most pronounced increases”; the pAKT level entry was “decreased dramatically”. Moreover, in assay [1], the “pFAK(Y397) / FAK” value was “strongly down-regulated”; the “protein levels of p53 and p21” value was “decreased the protein levels of p53 and p21”. In [2], the “decrease of intracellular S1P” value is on record as “over 90%”, the levels of sphingosine entry is listed as “dramatically decreased” and the “total ceramides relative to control cells” value was 2 times the level of control cells. The “SK2 mRNA level compared to vehicle control” value in the assay on SK2 mRNA was “strongly increased”. On recombinant human SK2, the Ki was 9.3 µM, the IC50 was ~40 µM and the “mode of inhibition of SK2” value is “sphingosine-competitive inhibitor”. In addition, the IC50 in assay [3] was determined as 40 µM. Moreover, the “serum-induced migration and invasion” value in assay [6] is given as “more strongly attenuated”. Also, the “effect on cell cycle distribution” value in assay [4] was “distinct G1 arrest with significant decreases in both S and G2/M phases”. Moreover, the “SK1 mRNA level compared to vehicle control” value with SK1 mRNA was “approximately 5 fold”.

Turning to `Oc1ccc(Nc2nc(-c3ccc(Cl)cc3)cs2)cc1` [SKI-II, 2-(p-hydroxyanilino)-4-(p-chlorophenyl) thiazole, reference compound], in [1], the ERK2 expression result was “decreases of ERK2”; the “pFAK(Y397) / FAK” value is “strongly down-regulated”; the “protein levels of p53 and p21” value is “decreased the protein levels of p53 and p21”. Also, in [2], the “decrease of intracellular S1P” value was “over 90%”, the “increase of total ceramide levels” value was 30–60% and the levels of sphingosine entry is recorded as “dramatically decreased”. For the same molecule, the “SK2 mRNA level compared to vehicle control” value in the assay on SK2 mRNA was ~4 fold. On recombinant human SK2, the Ki turned out to be 7.9 ± 0.6 µM and the IC50 was 20 µM. Besides, the IC50 in assay [3] worked out at 20 µM. In addition, the “serum-induced migration and invasion” value in assay [6] is on record as “more strongly attenuated”. Further, the “effect on cell cycle distribution” value in assay [4] is “arrested cells in S phase with a concomitant decrease in the G2/M phase”. Further, the “SK1 mRNA level compared to vehicle control” value with SK1 mRNA was ~4 fold.

For the molecule `O=C(NCCc1ccc(O)c(O)c1)C12CC3CC(C1)CC(c1ccc(Cl)cc1)(C3)C2` [ABC294735], on recombinant human SK1, the Ki was found to be 3.1 ± 0.8 µM, the IC50 is ~10 µM and the “mode of inhibition of SK1” value is on record as “sphingosine-competitive inhibitor”. Besides, the “SK2 mRNA level compared to vehicle control” value in the assay on SK2 mRNA is recorded as “Neither ABC294735 nor CB5468139 substantially altered the expression”. At recombinant human SK2, the inhibition constant (Ki) came out at 4.2 ± 0.6 µM, the IC50 is ~10 µM and the “mode of inhibition of SK2” value is given as “sphingosine-competitive inhibitor”. In assay [3], the IC50 came out at 35 µM. Besides, the “effect on cell cycle distribution” value in assay [4] was “slightly increase the S phase percentage”. Also, the “SK1 mRNA level compared to vehicle control” value in the assay on SK1 mRNA is given as “Neither ABC294735 nor CB5468139 substantially altered the expression”.

As to `CCCCCCCCCCCCC/C=C/[C@@H](O)[C@@H](N)CO` [sphingosine], the Michaelis-Menten constant (Km) at recombinant human SK1 (setting [7]) was 10 ± 0.45 µM; on recombinant human SK2 (setting [7]), 5 ± 0.36 µM.

Broadly, the Ki is a measure of affinity in units of concentration, obtained from inhibition or displacement. As a reminder, the Km is the concentration of substrate that gives half-maximal velocity.
